Measurements as given in ChEMBL document CHEMBL1201862, “PubChem BioAssay data set” (2004).
Active and inactive are the calls of the source.

Tests used:
[1] = human group III sPLA2 inhibitors, dose response, biochemical, QFRET, IC50 (AID 743457);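 note: green fluorescence rise as the enzyme cleaves BODIPY PC-A2 in liposomes; potency for inhibition of the enzyme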
[2] = HEK293T cytotoxicity, dose response, cytotoxicity control for miR-122 modulator project, cell-based, inhibitor set, cherry-pick, set 2 (AID 720697); format: functional
[3] = Shn3 3'UTR reporter inhibitors, dose response, cell-based, Clone20 osteoblasts, firefly luciferase, cherry-picked (AID 624132); format: functional;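 note: firefly luciferase luminescence from reporter carrying the Shn3 3'UTR in osteoblasts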
[4] = HEK293T cytotoxicity, dose response, cytotoxicity control for miR-122 modulator project, cell-based, activator set, cherry-pick (AID 720690); format: functional;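 note: HEK293T human cells scored for general mammalian cytotoxicity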
Melanocortin receptor 4 = Melanocortin receptor 4 (Homo sapiens, UniProt P32245); format: functional, cell-based;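 note: Cell-based assay with luminescence read-out, confirmatory dose-response testing for agonist activity of biased ligands at MC4R; human U2OS cells with tagged receptor and beta-arrestin; potency of agonists that increase receptor coupling to beta-arrestin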
[5] = miR-122 activators in hepatoma reporter cells, dose response, cell-based, Huh7 psiCHECK-miR122, Renilla luciferase, cherry-picked (AID 651956); format: functional;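 note: huh7 hepatoma cells stably carrying a psiCHECK-2 miR-122 sensor plasmid; renilla luciferase signal reporting endogenous miR-122 activity after 48 h compound exposure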

Melanocortin receptor 4, sequence (P32245 whole entry): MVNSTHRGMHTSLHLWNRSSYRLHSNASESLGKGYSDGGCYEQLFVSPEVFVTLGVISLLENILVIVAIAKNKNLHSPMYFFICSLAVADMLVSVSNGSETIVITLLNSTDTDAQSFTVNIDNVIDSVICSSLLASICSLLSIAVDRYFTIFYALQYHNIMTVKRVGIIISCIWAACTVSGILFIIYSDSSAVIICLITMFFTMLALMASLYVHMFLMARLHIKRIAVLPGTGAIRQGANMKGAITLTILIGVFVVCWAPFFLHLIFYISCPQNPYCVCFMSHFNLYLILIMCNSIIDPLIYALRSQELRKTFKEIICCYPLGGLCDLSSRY

| IC50 [1] | SMILES | AC50 [2] | AC50 [3] | AC50 [4] | EC50 (Melanocortin receptor 4) | AC50 [5] |
| --- | --- | --- | --- | --- | --- | --- |
| > 122 µM (inactive) | O=C1c2ccccc2C(=O)c2c(Nc3ccc(CCO)cc3)ccc(O)c21 | – | – | – | – | – |
| – | CCN1CCN(Cc2ccc(NC(=O)c3cc(NC(=O)c4cc5cccc(OC)c5o4)cc(OC)c3)cc2C(F)(F)F)CC1 | 4.28 µM (active) | 9.77 µM (active) | 8.76 µM (active) | > 89.2 µM (inactive) | 12.1 µM (active) |
